Blank lines part the entries; values can stand above or below the compound they belong to.
What was measured:
[1] = system: AGS xenograft tumor tissue; assay: Western blot of tumor tissue of xenograft mice; type: in vivo; settings: tumor tissue, oral 5 mg/kg, compared to control group
Procedure: For whole protein extraction, AGS cells were processed with samples at various concentrations for 24 hours. The cells were dissolved using Pierce™ RIPA buffer (Thermo Fisher Scientific, Rockford, IL, USA) together with protease inhibitor cocktail (GenDEPOT, TX, USA). The cell-dissolved solution formed in the above manner was centrifuged at 12,000 rpm for 20 minutes. The protein was loaded into a 10% SDS-PAGE gel using a protein gel electrophoresis chamber system and transferred to a PVDF membrane (Thermo Fisher Scientific, Rockford, IL, USA). A PBST solution containing 5% skim milk was used to block the membrane at 25° C. for 1 hour. Then, the membrane was incubated overnight at 4° C. with primary antibodies. Finally, the membrane was incubated with the secondary antibodies at 25° C. for 1 hour, and a protein band was detected using West-Q Pico ECL Solution (GenDEPOT, TX, USA). The results were quantified using ImageJ software.
Each mouse was orally administered with 8-paradol and 5-FU once a day for a total of 16 days. The control group was administered with only 0.9% of general saline during this period. Body weights and tumor volumes of the mice were measured daily in all mice during the study period. All mice were euthanized after the end of the experiments. Blood, liver, spleen, kidney, and tumor tissues were extracted and weighed. In order to obtain the protein of tumor tissue, a portion of the tissue was processed with RIPA buffer containing a protease inhibitor cocktail. Then, the expression degree of a specific protein (determined by Western blot) was determined.

[2] = system: AGS cells; settings: for dose at which significant toxicity to AGS cells was not exhibited: MTT; for IC50: read-out: IC50 on AGS cells, 24 hours, MTT assay; for dose at which significant toxicity to AGS cells was not exhibited / IC50: AGS cells
Procedure: AGS cells were grown in RPMI medium containing 10% FBS and 1% PS. HEK293 and RAW264.7 cells were grown in DMEM medium containing 10% FBS and 1% PS under conditions of 37° C., 5% CO2 and 95% air.
In order to evaluate toxicity to each cell, the sample was incubated in each cell (1×10^5 cells/well) cultured in the above manner for 24 hours, and then cytotoxicity to each cell was examined by using the MTT assay.

[3] = design: species or system mice; settings: mouse, in vivo, po, 5 mg/kg
Procedure: Male nude mice (CAnN.Cg-Foxn1-nu, 4 weeks old, 20 g to 22 g) were purchased from OrientBio (Seongnam, Republic of Korea). The mice were placed in a chamber with conditions maintained at 23° C. and 50% humidity with a period of 12 hours of light and 12 hours of darkness. All animal experiments were conducted according to the National Institutes of Health's Laboratory Animal Care and Use Guidelines (NIH Publications No. 8023, revised 1996) and the Kyung Hee University's Animal Care and Use Guidelines ([…]-441, approval data: Sep. 28, 2021). […] The control group was administered with only 0.9% of general saline during this period. Body weights and tumor volumes of the mice were measured daily in all mice during the study period. All mice were euthanized after the end of the experiments. Blood, liver, spleen, kidney, and tumor tissues were extracted and weighed. In order to obtain the protein of tumor tissue, a portion of the tissue was processed with RIPA buffer containing a protease inhibitor cocktail. Then, the expression degree of a specific protein (determined by Western blot) was determined. […] Fuji Dri-Chem analyzer (3500, Fuji Photo Film Co., Osaka, Japan) was used to measure alanine aminotransferase (ALT), aspartate aminotransferase (AST), total bilirumin (T-Bili), total protein (TP), albumin (Alb), albumin/globulin (A/G) ratio, total cholesterol (T-Chol), total triglyceride (TG), glucose (GLU), and blood urea nitrogen (BUN) values.

[4] = system: AGS xenograft tumor tissue; assay: IHC staining of tumor tissue; type: in vivo; settings: tumor tissue of administered mice
Procedure: The tumor tissue was fixed with 10% formalin and embedded with paraffin. Immunohistochemical (IHC) staining was performed using a mouse and rabbit-specific HRP/DAB (ABC) detection IHC kit (Abcam, Cambridge, MA, USA). The tissue was observed through an optical microscope, and the presence of a specific protein in the tumor tissue was determined to be the presence of a brown yellow color. The results were evaluated using ImageJ software.

SMILES: O=c1[nH]cc(F)c(=O)[nH]1 [5-FU, 5-fluorouracil]
- protein expressions of LC3, Pink1, Parkin, Bax, Cytochrome-c, cleaved-caspase-3/caspase-3, Cleaved-caspase-9/caspase-9, p62 and Bcl-2 [1]: lower
- cytotoxicity to AGS cells [2]: strong toxicity
- A/G (albumin/globulin) [3]: 0.52 ratio
- ALT (alanine aminotransferase) [3]: 101.6 U/L
- AST (aspartate aminotransferase) [3]: 204.9 U/L
- Alb (albumin) [3]: 1.7 g/dL
- BUN (blood urea nitrogen) [3]: 26.7 mg/dL
- Crea (creatinine) [3]: 0.34 mg/dL
- GLU (glucose) [3]: 56 mg/dL
- T-Bili (total bilirubin) [3]: 0.08 mg/dL
- T-Chol (total cholesterol) [3]: 124 mg/dL
- TG (triglyceride) [3]: 34 mg/dL
- TP (total protein) [3]: 5.1 g/dL
- density of LC3 and caspase-3 in tumor tissue [4]: increased

SMILES: N#CC(C#N)=NNc1cccc(Cl)c1 [CCCP, carbonyl cyanide m-chlorophenylhydrazone, reference compound]
- dose at which significant toxicity to AGS cells was not exhibited [2]: less than 15 μM

SMILES: CCCCCCCC(=O)CCc1ccc(O)c(OC)c1 [Purified Compound 1, 6-paradol]
- IC50 [2]: 25.7 ± 1.87 µM

SMILES: CCCCC[C@H](O)CC(=O)CCc1ccc(O)c(OC)c1 [Purified Compound 2, 6-gingerol]
- IC50 [2]: 178 ± 2.51 µM

SMILES: CO[C@H]1C[C@@H]2CC[C@@H](C)[C@@](O)(O2)C(=O)C(=O)N2CCCC[C@H]2C(=O)O[C@H]([C@H](C)C[C@@H]2CC[C@@H](O)[C@H](OC)C2)CC(=O)[C@H](C)/C=C(\C)[C@@H](O)[C@@H](OC)C(=O)[C@H](C)C[C@H](C)/C=C/C=C/C=C/1C [rapamycin, reference compound]
- dose at which significant toxicity to AGS cells was not exhibited [2]: less than 6 μM

Results, then the compound that gave them:

- IC50 [2]: 33.2 ± 1.21 µM
SMILES: CCCCCCC[C@H](O)CC(=O)CCc1ccc(O)c(OC)c1 [Purified Compound 4, 8-gingerol]

- IC50 [2]: 16.1 ± 2.32 µM
SMILES: CCCCCCCCC[C@H](O)CC(=O)CCc1ccc(O)c(OC)c1 [Purified Compound 5, 10-gingerol]

- IC50 [2]: 32.9 ± 2.26 µM
SMILES: CCCCC/C=C/C(=O)CCc1ccc(O)c(OC)c1 [Purified Compound 6, 6-shogaol]

- IC50 [2]: 45.6 ± 3.6 µM
SMILES: CCCCCCC/C=C/C(=O)CCc1ccc(O)c(OC)c1 [Purified Compound 7, 8-shogaol]

- IC50 [2]: 64.5 ± 1.98 µM
SMILES: CCCCCCCCC/C=C/C(=O)CCc1ccc(O)c(OC)c1 [Purified Compound 8, 10-shogaol]

— patent US20250144047A1, “PHARMACEUTICAL COMPOSITION FOR PREVENTING, AMELIORATING, OR TREATING CANCER CONTAINING 8-PARADOL” (KDBIO CORP., priority 2022, published 2025)
